Drawing on patent US20250213555A1, “SUBSTITUTED TETRAHYDROFURAN ANALOGS AS MODULATORS OF SODIUM CHANNELS” (VERTEX PHARMACEUTICALS INCORPORATED, priority 2021, published 2025), this text covers IC50 for 14 molecules.

One may read the IC50 as the point on the concentration scale where inhibition reaches its midpoint.

human Nav 1.8, sequence (Q9Y5Y9 126-399 limits assumed): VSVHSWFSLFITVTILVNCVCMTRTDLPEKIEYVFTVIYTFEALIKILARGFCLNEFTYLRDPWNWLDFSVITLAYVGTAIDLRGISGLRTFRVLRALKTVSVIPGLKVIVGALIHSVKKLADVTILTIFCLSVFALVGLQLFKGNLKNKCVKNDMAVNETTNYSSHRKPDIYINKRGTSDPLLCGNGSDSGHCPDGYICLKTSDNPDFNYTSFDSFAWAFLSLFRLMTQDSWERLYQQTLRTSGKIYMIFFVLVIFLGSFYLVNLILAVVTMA
human Nav 1.8, sequence (Q9Y5Y9 660-890 limits assumed): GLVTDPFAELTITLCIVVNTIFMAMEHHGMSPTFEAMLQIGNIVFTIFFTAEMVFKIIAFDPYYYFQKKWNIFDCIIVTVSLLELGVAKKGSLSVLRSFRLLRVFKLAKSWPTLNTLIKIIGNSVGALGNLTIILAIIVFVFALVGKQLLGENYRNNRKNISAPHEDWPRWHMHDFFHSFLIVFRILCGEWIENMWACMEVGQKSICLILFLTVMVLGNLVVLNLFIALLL
human Nav 1.8, sequence (Q9Y5Y9 1148-1722 limits assumed): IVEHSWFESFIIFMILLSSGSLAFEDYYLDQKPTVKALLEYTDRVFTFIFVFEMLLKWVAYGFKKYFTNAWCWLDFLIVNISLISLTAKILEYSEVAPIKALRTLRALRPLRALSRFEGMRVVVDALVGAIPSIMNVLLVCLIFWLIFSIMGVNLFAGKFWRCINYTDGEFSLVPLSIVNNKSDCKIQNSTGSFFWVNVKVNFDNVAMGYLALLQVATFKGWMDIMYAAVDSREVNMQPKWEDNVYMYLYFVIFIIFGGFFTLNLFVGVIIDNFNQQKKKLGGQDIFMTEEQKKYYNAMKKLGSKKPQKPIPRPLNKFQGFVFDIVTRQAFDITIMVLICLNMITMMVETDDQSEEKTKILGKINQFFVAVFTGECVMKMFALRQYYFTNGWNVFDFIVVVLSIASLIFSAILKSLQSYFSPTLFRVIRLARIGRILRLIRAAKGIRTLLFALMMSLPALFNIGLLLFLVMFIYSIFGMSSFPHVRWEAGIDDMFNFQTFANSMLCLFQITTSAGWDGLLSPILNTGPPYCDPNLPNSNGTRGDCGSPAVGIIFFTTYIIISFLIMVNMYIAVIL

The assay has as its target human Nav 1.8 (Homo sapiens, UniProt Q9Y5Y9). Description: E-VIPR assay detecting and measuring Nav inhibition properties. It is filed as cell-based. The conditions noted are these: HEK cells expressing a truncated form of human Nav 1.8; compound numbers without "*" (not marked as run in the presence of human serum); read-out: measured IC50 value in the E-VIPR Assay. An excerpt:
E-VIPR Assay Detecting and Measuring Nav Inhibition Properties
Sodium ion channels are voltage-dependent proteins that can be activated by inducing membrane voltage changes by applying electric fields. The electrical stimulation instrument and methods of use, referred to as E-VIPR, are described in International Publication No. WO 2002/008748 A3 and C.-J. Huang et al. Characterization of voltage-gated sodium channel blockers by electrical stimulation and fluorescence detection of membrane potential, 24 Nature Biotech. 439-46 (2006), both of which are incorporated by reference in their entirety. The instrument comprises a microtiter plate handler, an optical system for exciting the coumarin dye while simultaneously recording the coumarin and oxonol emissions, a waveform generator, a current- or voltage-controlled amplifier, and parallel electrode pairs that are inserted into assay plate wells. Under integrated computer control, this instrument passes user-programmed electrical stimulus protocols to cells within the wells of the microtiter plate.
16-20 hours prior to running the assay on E-VIPR, HEK cells expressing a truncated form of human Nav 1.8 with full channel activity were seeded into microtiter 384-well plates, pre-coated with matrigel, at a density of 25,000 cells per well. 2.5-5% KIR2.1 Bacmam virus was added to the final cell suspension before seeding into cell plates. HEK cells were grown in Dulbecco's Modified Eagle's Medium (DMEM) supplemented with 10% FBS (Fetal Bovine Serum, qualified; Sigma #F4135), 1% NEAA (Non-Essential Amino Acids, Gibco #11140), 1% HEPES (Gibco #15630), 1% Pen-Strep (Penicillin-Streptomycin; Gibco #15140) and 5 μg/ml Blasticidin (Gibco #R^210-01). Cells were expanded in vented cap cell culture flasks, with 90-95% humidity and 5% CO2.
100 mg/mL Pluronic F-127 (Sigma #P2443), in dry DMSO
Compound Plates: Corning 384-well Polypropylene Round Bottom #3656
Cell Plates: 384-well tissue culture treated plates (Greiner #781091-2B)
2.5-5% KIR 2.1 Bacmam virus (produced in-house), prepared as described in Section 3.3 of J. A. Fornwald et al., Gene Expression in Mammalian Cells Using BacMam, a Modified Baculovirus System, 1350 Methods in Molecular Biology 95-116 (2016), the entire contents of which are incorporated by reference. The concentration used can be dependent on viral titer of each batch.
5 mM DiSBAC6(3), a voltage sensitive oxonol acceptor (CAS number 169211-44-3; 5-[3-(1,3-dihexylhexahydro-4,6-dioxo-2-thioxo-5-pyrimidinyl)-2-propen-1-ylidene]-1,3-dihexyldihydro-2-thioxo-4,6 (1H,5H)-pyrimidinedione), in dry DMSO. The preparation of DiSBAC6(3) is analogous to that of DiSBAC4(3) as described in Voltage Sensing by Fluorescence Resonance Energy Transfer in Single Cells, Gonzalez, J. E. and Tsien, R. Y. (1995) Biophys. J. 69, 1272-1280.
5 mM CC2-DMPE, a commercially available membrane-bound coumarin phospholipid FRET donor (ThermoFisher Scientific catalog number K1017, CAS number 393782-57-5; tetradecanoic acid, 1,1′-[(1R)-1-[8-(6-chloro-7-hydroxy-2-oxo-2H-1-benzopyran-3-yl)-3-hydroxy-3-oxido-8-oxo-2,4-dioxa-7-aza-3-phosphaoct-1-yl]-1,2-ethanediyl] ester) was prepared in dry DMSO. See also, Improved indicators of cell membrane potential that use fluorescence resonance energy transfer, Gonzalez, J. E. and Tsien, R. Y. (1997) Chem. Biol. 4, 269-277.
Voltage Assay Background Suppression Compound (VABSC-1) is prepared in H2O (89-363 mM, range used to maintain solubility)
Human Serum (HS, Millipore #S1P1-01KL, or Sigma SLBR5469V and SLBR5470V as a 50%/50% mixture, for 25% assay final concentration)
• Sodium Chloride 160 mM (9.35 g/L), Potassium Chloride, 4.5 mM (0.335 g/L), Glucose 10 mM (1.8 g/L), Magnesium Chloride (Anhydrous) 1 mM (0.095 g/L), Calcium Chloride 2 mM (0.222 g/L), HEPES 10 mM (2.38 g/L) in water. […]
For `C[C@H]1[C@@H](c2ccc(F)c(F)c2O[C@@H]2CCN(C)C2)[C@H](C(=O)Nc2ccnc(C(N)=O)c2)O[C@@]1(C)C(F)(F)F` (single isomer, unassigned) [Compound 102, rel-4-((2R*,3S*,4S*,5R*)-3-(3,4-difluoro-2-((-1-methylpyrrolidin-3-yl)oxy)phenyl)-4,5-dimethyl-5-(trifluoromethyl)tetrahydrofuran-2-carboxamido)picolinamide], the concentration for half-maximal inhibition (IC50) fell in the range of 10 to 100 nM.
As for `COc1c([C@@H]2[C@@H](C(=O)Nc3ccnc(C(N)=O)c3)O[C@](C)(C(F)(F)F)[C@@H]2C)ccc(F)c1CO` (single isomer, unassigned) [Compound 137], the IC50 was not below 1000 nM.
Take `COCc1c(F)ccc([C@@H]2[C@@H](C(=O)Nc3ccnc(C(N)=O)c3)O[C@](C)(C(F)(F)F)[C@@H]2C)c1OC` (single isomer, unassigned) [Compound 139]: the IC50 is not below 1000 nM.
The value for `COCc1c(F)ccc([C@H]2[C@H](C(=O)Nc3ccnc(C(N)=O)c3)O[C@@](C)(C(F)(F)F)[C@H]2C)c1OC` (single isomer, unassigned) [Compound 140] was less than 10 nM; that for `COc1c([C@@H]2[C@@H](C(=O)Nc3ccnc(C(N)=O)c3)O[C@](C)(C(F)(F)F)[C@@H]2C)ccc(OCC2CC2)c1F` (single isomer, unassigned) [Compound 141] was 100 to 1000 nM.
The value for `COc1c([C@@H]2[C@@H](C)[C@@](C)(C(F)(F)F)O[C@H]2C(=O)Nc2ccnc(C(N)=O)c2)ccc(OCC2CC2)c1F` (single isomer, unassigned) [Compound 142] was not below 1000 nM; that for `COc1c([C@@H]2[C@@H](C(=O)Nc3ccnc(C(N)=O)c3)O[C@@](C)(C(F)(F)F)[C@H]2C)ccc(OCC2CC2)c1F` (single isomer, unassigned) [Compound 143] was 100 to 1000 nM; that for `COc1c([C@H]2[C@H](C(=O)Nc3ccnc(C(N)=O)c3)O[C@@](C)(C(F)(F)F)[C@H]2C)ccc(OCC2CC2)c1F` (single isomer, unassigned) [Compound 144] was less than 10 nM.
The value for `COCc1c([C@@H]2[C@@H](C(=O)Nc3ccnc(C(N)=O)c3)O[C@](C)(C(F)(F)F)[C@@H]2C)ccc(F)c1F` (single isomer, unassigned) [Compound 146] was not below 1000 nM; that for `COCc1c([C@H]2[C@H](C(=O)Nc3ccnc(C(N)=O)c3)O[C@@](C)(C(F)(F)F)[C@H]2C)ccc(F)c1F` (single isomer, unassigned) [Compound 147] was less than 10 nM; that for `C[C@@H]1[C@H](c2ccc(F)c3c2CCC3(F)F)[C@@H](C(=O)Nc2ccnc(C(N)=O)c2)O[C@]1(C)C(F)(F)F` (single isomer, unassigned) [Compound 148] was not below 1000 nM.
Consider `C[C@H]1[C@@H](c2ccc(F)c3c2CCC3(F)F)[C@H](C(=O)Nc2ccnc(C(N)=O)c2)O[C@@]1(C)C(F)(F)F` (single isomer, unassigned) [Compound 149], for which the IC50 was less than 10 nM.
For `CO[C@H](CO)COc1c([C@H]2[C@H](C(=O)Nc3ccnc(C(N)=O)c3)O[C@@](C)(C(F)(F)F)[C@H]2C)ccc(F)c1F` (single isomer, unassigned) [Compound 160, rel-4-((2R*,3S*,4S*,5R*)-3-(3,4-difluoro-2-(3-hydroxy-2-methoxypropoxy)phenyl)-4,5-dimethyl-5-(trifluoromethyl)tetrahydrofuran-2-carboxamido)picolinamide], the IC50 was less than 10 nM.
The value for `CO[C@H](CO)COc1c([C@H]2[C@H](C(=O)Nc3ccnc(C(N)=O)c3)O[C@@](C)(C(F)(F)F)[C@H]2C)ccc(F)c1F` (single isomer, unassigned) [Compound 161, rel-4-((2R*,3S*,4S*,5R*)-3-(3,4-difluoro-2-(3-hydroxy-2-methoxypropoxy)phenyl)-4,5-dimethyl-5-(trifluoromethyl)tetrahydrofuran-2-carboxamido)picolinamide] was 10 to 100 nM.
